Experimental data taken from US6399325B1, “DNA encoding a galanin receptor” (priority 1994, dated 2002).

System: mock transformed CHO cells
Experiment: cAMP assay in mock transformed CHO cells
Format: cell-based
Conditions: CHO transformants with the plasmid vector without cDNA insert; forskolin 10 μM, porcine galanin 0.1 μM; 37° C. for 30 min
Description: (§1) CHO-MGR20 or mock transformed CHO cells were incubated with forskolin (10 μM) and porcine galanin (0.1 μM) at 37° C. for 30 min. The reaction was terminated by extracting the cells with ice-cold ethanol. The amounts of intracellular cAMP were quantitated by EIA. Values indicated are mean±S.E.M. in triplicate assays.
The CHO cells were seeded at 2.0×10^5 cells/well in 24-well tissue culture plates and cultured for two days. The cells were washed two times with HBSS containing 0.1% BSA and 1 mM IBMX, and then the same buffer with experimental agents were added to the wells. After incubation at 37° C. for 30 min, the media were discarded and intracellular cAMP was extracted with ice-cold ethanol. The aliquots of extracts were evaporated and the amounts of cAMP were quantitated by a cAMP EIA system (Amersham) as described by the manufacturer.
as §1, with “Galanin receptor-mediated inhibition of forskolin-stimulated cAMP production was observed. CHO-MGR20” for “CHO-MGR20”

Substance: Porcine Galanin
- forskolin-stimulated cAMP accumulation: not inhibited
